Results published in article PMC10681007, “Targeted Degradation of XIAP is Sufficient and Specific to Induce Apoptosis in MYCN-overexpressing High-risk Neuroblastoma” (Cancer Research Communications, 2023).
pIC50: −log10 of the molar value. Blank lines part the entries; values can stand above or below the compound they belong to.

Legend:
Assay type in all cases: cell-based, Human
[1] = test system: THLE3 and HS5; assay: Toxicity and tolerability in noncancerous normal tissue-derived cell lines; settings: THLE3 and HS5 versus neuroblastoma cells
Protocol: (§1) Cell viability was measured in real time using RealTime-Glo MT Cell Viability Assay as according to manufacturer's instructions from Promega. Cells were seeded at 1 × 10^4 cells per well and treated with a range of doses of indicated antagonists, followed by continuous bioluminescence reading every 24 hours for 3 days using luminescent plate reader, Varioskan (SkanIT software). IC50 was determined using GraphPad Prism software.
To evaluate this, noncancerous normal tissue-derived cell lines THLE3 and HS5 were utilized to evaluate toxicity and tolerability. […] On the basis of their overall potency and specificity toward neuroblastoma cells over noncancerous normal cells, A4, B3, and BV6 were selected as the more efficacious antagonists to be studied further in subsequent experiments (Fig. 2A).

[2] = test system: THLE3 (liver origin); assay: RealTime-Glo MT cell viability assay, noncancerous normal cells; settings: Homo sapiens
Protocol: as §1
(§2) To determine their efficacy in neuroblastoma, a panel of neuroblastoma cell lines including neuroblastoma patient-derived cell lines and noncancerous normal tissue-derived cell lines were treated with increasing doses of each antagonist (0–100 µmol/L), followed by real-time measurement of cell viability every 24 for 72 hours.
(§3) To evaluate this, noncancerous normal tissue-derived cell lines THLE3 and HS5 were utilized to evaluate toxicity and tolerability.

[3] = test system: HS5 (bone marrow origin); assay: as above; settings: Homo sapiens
Protocol: as §1, §2, §3

[4] = test system: NLF; assay: RealTime-Glo MT cell viability assay; settings: Homo sapiens
Protocol: as §1, §2

[5] = test system: SK-N-SH; assay: RealTime-Glo MT cell viability assay; settings: Homo sapiens
Protocol: as §1, §2

[6] = test system: NBL01-1116 patient-derived neuroblastoma cells; assay: RealTime-Glo MT cell viability assay; settings: Homo sapiens, Neuroblastoma cell
Protocol: as §1, §2

[7] = test system: KELLY; assay: RealTime-Glo MT cell viability assay; settings: Homo sapiens
Protocol: as §1, §2

[8] = test system: IMR-32; assay: RealTime-Glo MT cell viability assay; settings: Homo sapiens
Protocol: as §1, §2

[9] = test system: NBL-07-0317 patient-derived neuroblastoma cells; assay: RealTime-Glo MT cell viability assay; settings: Homo sapiens, Neuroblastoma cell
Protocol: as §1, §2

[10] = test system: BE(2)-C; assay: RealTime-Glo MT cell viability assay; settings: Homo sapiens
Protocol: as §1, §2

[11] = test system: SK-N-AS; assay: RealTime-Glo MT cell viability assay; settings: Homo sapiens
Protocol: as §1, §2

[12] = test system: NB1; assay: RealTime-Glo MT cell viability assay; settings: Homo sapiens
Protocol: as §1, §2

[13] = test system: NBL16-0118 patient-derived neuroblastoma cells; assay: RealTime-Glo MT cell viability assay; settings: Homo sapiens, Neuroblastoma cell
Protocol: as §1, §2

[14] = test system: NBL27-0218A patient-derived neuroblastoma cells; assay: RealTime-Glo MT cell viability assay; settings: Homo sapiens, Neuroblastoma cell
Protocol: as §1, §2

[15] = test system: CHP212; assay: RealTime-Glo MT cell viability assay; settings: Homo sapiens, CHP-212
Protocol: as §1, §2

[16] = test system: neuroblastoma cells across the panel of cell lines; assay: Cell viability, IC50 range across the panel; settings: Homo sapiens, Neuroblastoma cell; range over cell lines, doses 0–100 µmol/L, viability every 24 for 72 hours; read-out: IC50 against neuroblastoma cells across the panel of cell lines
Protocol: as §1, with “([…]” for “(SkanIT”, “software. To determine their efficacy in neuroblastoma, a panel of neuroblastoma cell lines including neuroblastoma patient-derived cell lines and noncancerous normal tissue-derived cell lines were treated with increasing doses of each antagonist (0-100 μmol/L), followed by real-time measurement of cell viability every 24 for 72 hours. […] Supplementary Table S2; Fig. 2A). […] Fig. 2A).” for “software.”

pIC50 ([5]; 24 hours): 4.27
pIC50 ([5]; 48 hours): 4.40
pIC50 ([5]; 72 hours): 4.47
pIC50 ([6]; NBL01-1116, 24 hours): 4.40
pIC50 ([6]; NBL01-1116, 48 hours): 4.42
pIC50 ([6]; NBL01-1116, 72 hours): 4.42
pIC50 ([9]; NBL-07-0317, 24 hours): 4.47
pIC50 ([9]; NBL-07-0317, 48 hours): 4.48
pIC50 ([9]; NBL-07-0317, 72 hours): 4.49
pIC50 ([11]; 24 hours): 4.48
pIC50 ([11]; 48 hours): 4.57
pIC50 ([11]; 72 hours): 4.65
pIC50 ([13]; NBL16-0118, 24 hours): 4.46
pIC50 ([13]; NBL16-0118, 48 hours): 4.49
pIC50 ([13]; NBL16-0118, 72 hours): 4.52
pIC50 ([14]; 24 hours): 4.48
pIC50 ([14]; 48 hours): 4.52
pIC50 ([14]; 72 hours): 4.55
pIC50 [16]: 4.22 to 4.70
SMILES: CN[C@@H](C)C(=O)N[C@H](C(=O)N1CCC[C@H]1C(=O)Nc1sc(-c2ncco2)nc1-c1ccccc1)C1CCCCC1 [CUDC-427]
toxicity to noncancerous cells [1]: more toxic toward noncancerous cells than neuroblastoma cells
pIC50 ([2]; THLE3, 24 hours): 4.40
pIC50 ([2]; THLE3, 48 hours): 4.54
pIC50 ([2]; THLE3, 72 hours): 4.53
pIC50 ([3]; HS5, 24 hours): 4.52
pIC50 ([3]; HS5, 48 hours): 4.58
pIC50 ([3]; HS5, 72 hours): 4.62
pIC50 ([4]; 24 hours): 4.35
pIC50 ([4]; 48 hours): 4.41
pIC50 ([4]; 72 hours): 4.52
pIC50 ([7]; 24 hours): 4.49
pIC50 ([7]; 48 hours): 4.53
pIC50 ([7]; 72 hours): 4.59
pIC50 ([8]; IMR-32, 24 hours): 4.23
pIC50 ([8]; IMR-32, 48 hours): 4.33
pIC50 ([8]; IMR-32, 72 hours): 4.39
pIC50 ([10]; 24 hours): 4.19
pIC50 ([10]; 48 hours): 4.22
pIC50 ([10]; 72 hours): 4.25
pIC50 ([12]; NB1, 24 hours): 4.38
pIC50 ([12]; NB1, 48 hours): 4.42
pIC50 ([12]; NB1, 72 hours): 4.43
pIC50 ([15]; CHP212, 24 hours): 4.24
pIC50 ([15]; CHP212, 48 hours): 4.30
pIC50 ([15]; CHP212, 72 hours): 4.30

pIC50 ([5]; 24 hours): < 4.00
pIC50 ([5]; 48 hours): < 4.00
pIC50 ([5]; 72 hours): 4.45
pIC50 ([6]; NBL01-1116, 24 hours): < 4.00
pIC50 ([6]; NBL01-1116, 48 hours): < 4.00
pIC50 ([6]; NBL01-1116, 72 hours): < 4.00
pIC50 ([9]; NBL-07-0317, 24 hours): < 4.00
pIC50 ([9]; NBL-07-0317, 48 hours): 4.03
pIC50 ([9]; NBL-07-0317, 72 hours): < 4.00
pIC50 ([11]; 24 hours): 4.16
pIC50 ([11]; 48 hours): 4.30
pIC50 ([11]; 72 hours): 4.07
pIC50 ([13]; NBL16-0118, 24 hours): < 4.00
pIC50 ([13]; NBL16-0118, 48 hours): < 4.00
pIC50 ([13]; NBL16-0118, 72 hours): < 4.00
pIC50 ([14]; 24 hours): < 4.00
pIC50 ([14]; 48 hours): < 4.00
pIC50 ([14]; 72 hours): 4.30
SMILES: CN[C@@H](C)C(=O)N[C@H]1CN(C(=O)CC(C)C)CC[C@H]2CC[C@@H](C(=O)NC(c3ccccc3)c3ccccc3)N2C1=O [Debio 1143]
toxicity to noncancerous cells [1]: more toxic toward noncancerous cells than neuroblastoma cells
pIC50 ([2]; THLE3, 24 hours): < 4.00
pIC50 ([2]; THLE3, 48 hours): 4.14
pIC50 ([2]; THLE3, 72 hours): 4.10
pIC50 ([3]; HS5, 24 hours): < 4.00
pIC50 ([3]; HS5, 48 hours): 4.05
pIC50 ([3]; HS5, 72 hours): < 4.00
pIC50 ([4]; 24 hours): < 4.00
pIC50 ([4]; 48 hours): 4.11
pIC50 ([4]; 72 hours): < 4.00
pIC50 ([7]; 24 hours): 4.04
pIC50 ([7]; 48 hours): 4.13
pIC50 ([7]; 72 hours): < 4.00
pIC50 ([8]; IMR-32, 24 hours): < 4.00
pIC50 ([8]; IMR-32, 48 hours): < 4.00
pIC50 ([8]; IMR-32, 72 hours): 4.19
pIC50 ([10]; 24 hours): < 4.00
pIC50 ([10]; 48 hours): < 4.00
pIC50 ([10]; 72 hours): < 4.00
pIC50 ([12]; NB1, 24 hours): < 4.00
pIC50 ([12]; NB1, 48 hours): < 4.00
pIC50 ([12]; NB1, 72 hours): 4.19
pIC50 ([15]; CHP212, 24 hours): < 4.00
pIC50 ([15]; CHP212, 48 hours): < 4.00
pIC50 ([15]; CHP212, 72 hours): < 4.00
